Measurements from ChEMBL document CHEMBL5608235, “Tricyclic Benzo[1,3]oxazinyloxazolidinones as Potent Antibacterial Agents against Drug-Resistant Pathogens” (J Med Chem, 2024).
Calls of active or inactive are those of the source.

Experiments:
Staphylococcus aureus [1] = test: (§1) Antibacterial activity against methicillin resistant Staphylococcus aureus ATCC 33592 infected in cyclophosphamide-induced immunosuppressed Kunming mouse assessed as reduction in inflammatory cell infiltration in kidney at 50 mg/kg,po administration measured after 24 hrs by hematoxylin and eosin staining based microscopy; format: functional, organism-based
Staphylococcus aureus [2] = test: Antibacterial activity against vancomycin intermediate Staphylococcus aureus ATCC700699 assessed as inhibition of bacterial growth incubated for 7 days by alamar blue assay; format: functional; settings: ATCC700699, 168 h, time 7 day
Staphylococcus aureus [3] = test: Inhibition of biofilm formation in Staphylococcus aureus ATCC 29213 at 10 ug/ml incubated for 48 hrs by crystal violet staining based assay; format: functional, organism-based; settings: dose 10.0 µg/ml
Staphylococcus aureus [4] = test: as §1, with “pigment deposition” for “inflammatory cell infiltration”, “spleen” for “kidney”; format: functional, organism-based
Staphylococcus aureus [5] = test: as §1, with “histopathological change” for “inflammatory cell infiltration”, “heart” for “kidney”; format: functional, organism-based
[6] = Free AUC in BALB/c mouse at 10 mg/kg,po administration measured upto 24 hrs by LC-MS/MS analysis; format: ADME, organism-based; settings: in vivo
Cell membrane [7] = test: Disruption of cell membrane in methicillin resistant Staphylococcus aureus ATCC 33592 assessed as cell shrinkage at 1 ug/ml incubated for 6 hrs by Scanning electron microscopic analysis; format: cell membranes; settings: dose 1.0 µg/ml
Staphylococcus aureus [8] = test: Antibacterial activity against methicillin resistant Staphylococcus aureus clinical isolate 20-1 assessed as inhibition of bacterial growth incubated for 7 days by alamar blue assay; format: functional; settings: clinical isolate 20-1, 168 h, time 7 day
[9] = tested on: Staphylococcus epidermidis; test: Antibacterial activity against methicillin resistant Staphylococcus epidermidis clinical isolate 20-1 assessed as inhibition of bacterial growth incubated for 7 days by alamar blue assay; format: functional; settings: clinical isolate 20-1, 168 h, time 7 day
Staphylococcus aureus [10] = test: Antibacterial activity against Linezolid resistant Staphylococcus aureus clinical isolate 20-2 assessed as inhibition of bacterial growth incubated for 7 days by alamar blue assay; format: functional; settings: clinical isolate 20-2, 168 h, time 7 day
Staphylococcus aureus [11] = test: Inhibition of biofilm formation in methicillin resistant Staphylococcus aureus ATCC 33592 at 0.1 to 10 ug/ml incubated for 48 hrs by crystal violet staining based assay; format: functional, organism-based; settings: dose 0.1-10 µg/ml
Staphylococcus aureus [12] = test: Inhibition of protein synthesis in Staphylococcus aureus ATCC 29213 by translation assay; format: functional, organism-based
Cell membrane [13] = test: Disruption of cell membrane in methicillin resistant Staphylococcus aureus ATCC 33592 assessed as cell surface perforation at 1 ug/ml incubated for 6 hrs by Scanning electron microscopic analysis; format: cell membranes; settings: dose 1.0 µg/ml
Staphylococcus aureus [14] = test: Antibacterial activity against methicillin resistant Staphylococcus aureus ATCC 33592 infected in cyclophosphamide-induced immunosuppressed Kunming mouse assessed as increase in body weight at 50 mg/kg,po administration measured for 7 days; format: functional, organism-based; settings: time 7.0 day
[15] = tested on: Staphylococcus epidermidis; test: Antibacterial activity against methicillin resistant Staphylococcus epidermidis clinical isolate 20-2 assessed as inhibition of bacterial growth incubated for 7 days by alamar blue assay; format: functional; settings: clinical isolate 20-2, 168 h, time 7 day
Staphylococcus aureus [16] = test: as §1, with “histopathological change” for “inflammatory cell infiltration”, “spleen” for “kidney”; format: functional, organism-based
Staphylococcus aureus [17] = test: Antibacterial activity against Linezolid resistant Staphylococcus aureus assessed as inhibition of bacterial growth incubated for 7 days by alamar blue assay; format: functional; settings: 168 h, time 7 day
Enterococcus faecalis = test: Antibacterial activity against Enterococcus faecalis ATCC29212 assessed as inhibition of bacterial growth incubated for 18 hrs by microdilution broth assay; format: functional
[18] = tested on: Staphylococcus epidermidis; test: Antibacterial activity against Staphylococcus epidermidis ATCC12228 assessed as inhibition of bacterial growth incubated for 18 hrs by microdilution broth assay; format: functional
Staphylococcus aureus [19] = test: as §1, with “congestion” for “inflammatory cell infiltration”, “spleen” for “kidney”; format: functional, organism-based
Staphylococcus aureus [20] = test: as §1, with “liver” for “kidney”; format: functional, organism-based
Staphylococcus aureus [21] = test: Antibacterial activity against Linezolid resistant Staphylococcus aureus clinical isolate 20-1 assessed as inhibition of bacterial growth incubated for 7 days by alamar blue assay; format: functional; settings: clinical isolate 20-1, 168 h, time 7 day
Enterococcus = test: Antibacterial activity against vancomycin resistant Enterococcus clinical isolate 20-1 assessed as inhibition of bacterial growth incubated for 7 days by alamar blue assay; format: functional; settings: clinical isolate 20-1, 168 h, time 7 day
[22] = Cytotoxicity against African green monkey Vero cells incubated for 48 hrs by MTT assay; format: toxicity, cell-based, Chlorocebus sabaeus
[23] = tested on: Mycobacterium tuberculosis; test: Antibacterial activity against Mycobacterium tuberculosis H37Rv assessed as inhibition of bacterial growth incubated for 7 days by alamar blue assay; format: functional; settings: 168 h, time 7 day
Staphylococcus aureus [24] = test: Antibacterial activity against methicillin resistant Staphylococcus aureus clinical isolate 20-2 assessed as inhibition of bacterial growth incubated for 7 days by alamar blue assay; format: functional; settings: clinical isolate 20-2, 168 h, time 7 day
Bacillus subtilis = test: Antibacterial activity against Bacillus subtilis ATCC6633 assessed as inhibition of bacterial growth incubated for 18 hrs by microdilution broth assay; format: functional

CC(=O)NC[C@H]1CN(c2ccc(N3CCOCC3)c(F)c2)C(=O)O1 [LINEZOLID]
0.8 µg/mL: MIC [23]
8 µg/mL: MIC (Staphylococcus aureus [10]) | MIC (Staphylococcus aureus [17]) | MIC (Staphylococcus aureus [21])
1 µg/mL: MIC (Staphylococcus aureus [2]) | MIC (Staphylococcus aureus [8]) | MIC (Staphylococcus aureus [24])
1.1 µg/mL: IC50 (Staphylococcus aureus [12])
active: Activity (Staphylococcus aureus [1]) | inhibition (Staphylococcus aureus [3]) | Activity (Staphylococcus aureus [4]) | Activity (Staphylococcus aureus [5]) | Activity (Cell membrane [7]) | inhibition (Staphylococcus aureus [11]) | Activity (Cell membrane [13]) | Activity (Staphylococcus aureus [14]) | Activity (Staphylococcus aureus [16]) | Activity (Staphylococcus aureus [19]) | Activity (Staphylococcus aureus [20])
0.5 µg/mL: MIC [9] | MIC [15] | MIC (Enterococcus faecalis)
2 µg/mL: MIC [18] | MIC (Enterococcus)
> 64 µg/mL: IC50 at 48 h [22] | MIC (Bacillus subtilis)
5260 ng·h/mL: fAUC [6]
